# Laboratory results published in patent US20110319329A1, “USE OF SO[…] IN CLUSTER HEADACHE” (priority 2007, published 2011).
# Where two headings read alike, the source gives them in different places. Numbered stars: 1 amine (or outer) side, 2 acyl side, 3 side chain; on linkers, the order of the positions; unused ones are H or OH. Square brackets hold non-standard residues; d marks the D form. Side chains are listed from the residue outwards. Peptide text beside a SMILES is read from it. * marks the point of attachment. Ethylenediamine = C(CN[*:2])N[*:1]; Hyp = O=C(O)[C@@H]1C[C@@H](O)CN1; Phg = N[C@H](C(=O)O)c1ccccc1; CO = O=C([*:1])[*:2]; Bn = c1ccc(C*)cc1
# Columns and labels:
# [1] = cited from earlier work
# [2] = partition coefficient (lipophilicity)
Compound,"half-life ([1]; octapeptide analog, can be given subcutaneously)",logP [2],"half-life ([1]; native somatostatin, necessitates intravenous infusion)"
C[C@@H](O)[C@@H]1NC(=O)[C@H](CCCCN)NC(=O)[C@@H](Cc2c[nH]c3ccccc23)NC(=O)[C@H](Cc2ccccc2)NC(=O)[C@@H](NC(=O)[C@H](N)Cc2ccccc2)CSSC[C@@H](C(=O)N[C@H](CO)[C@@H](C)O)NC1=O [octreotide],approximately 1.5 hours,5.5,–
"NCCCC[C@@H]1NC(=O)[C@@H](Cc2c[nH]c3ccccc23)NC(=O)[C@H](c2ccccc2)NC(=O)[C@@H]2C[C@@H](OC(=O)NCCN)CN2C(=O)[C@H](Cc2ccccc2)NC(=O)[C@H](Cc2ccc(OCc3ccccc3)cc2)NC1=O [pasireotide, cyclo[{4-(NH2—C2H4—NH—CO—O-)Pro}-Phg-DTrp-Lys-Tyr(4-Bzl)-Phe]] (cyclo([Hyp]([CO-Ethylenediamine])[Phg][dW]KY(Bn)F); ring closure inferred)",–,2.7,–
somatostatin,–,–,several minutes
